Results published in the supplement of paper PMC10307832.

What was measured:
Assay in all cases: relative viability (nuclei count vs DMSO), 5 days (fraction); higher = more cells survive
[1] = compound: CCOc1cc2ncc(C#N)c(Nc3ccc(OCc4ccccn4)c(Cl)c3)c2cc1NC(=O)/C=C/CN(C)C [Neratinib] + CC(=O)c1c(C)c2cnc(Nc3ccc(N4CCNCC4)cn3)nc2n(C2CCCC2)c1=O [Palbociclib] (partner 0.5 µM)
Summary of the method: (§1)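 Lung cancer cell lines in 1536-well plates were dosed by pin tool the day after seeding, either with one drug alone or with a fixed anchor-drug dose plus five library-drug doses (not always all listed) in √10 steps. After 5 days, cells were fixed and their nuclei stained in one step (final 0.05% Triton X-100, 1% formaldehyde, 1 ug/ml Hoechst), then counted on 4× images. Relative viability is the nuclei count in treated wells divided by that in vehicle wells. Values are medians of duplicate plates.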

[2] = compound: CCOc1cc2ncc(C#N)c(Nc3ccc(OCc4ccccn4)c(Cl)c3)c2cc1NC(=O)/C=C/CN(C)C [Neratinib] + CS(=O)(=O)N1CCN(Cc2cc3nc(-c4cccc5[nH]ncc45)nc(N4CCOCC4)c3s2)CC1 [Pictilisib] (partner 1 µM)
Summary of the method: as §1

[3] = compound: CCOc1cc2ncc(C#N)c(Nc3ccc(OCc4ccccn4)c(Cl)c3)c2cc1NC(=O)/C=C/CN(C)C [Neratinib] + N=C(N)NC(=N)NCCc1ccccc1 [Phenformin] (partner 250 µM)
Summary of the method: as §1

[4] = compound: CCOc1cc2ncc(C#N)c(Nc3ccc(OCc4ccccn4)c(Cl)c3)c2cc1NC(=O)/C=C/CN(C)C [Neratinib] + Nc1ncn([C@H]2C[C@H](O)[C@@H](CO)O2)c(=O)n1 [Decitabine] (partner 2 µM)
Summary of the method: as §1

Cell Line | relative viability ([1]; first compound 0.01 µM) | relative viability ([1]; first compound 0.03162 µM) | relative viability ([1]; first compound 0.1 µM) | relative viability ([1]; first compound 0.3162 µM) | relative viability ([1]; first compound 1 µM) | relative viability ([2]; first compound 0.03162 µM) | relative viability ([2]; first compound 0.1 µM) | relative viability ([2]; first compound 0.3162 µM) | relative viability ([2]; first compound 1 µM) | relative viability ([3]; first compound 0.01 µM) | relative viability ([3]; first compound 0.03162 µM) | relative viability ([3]; first compound 0.1 µM) | relative viability ([3]; first compound 0.3162 µM) | relative viability ([3]; first compound 1 µM) | relative viability ([4]; first compound 0.01 µM) | relative viability ([4]; first compound 0.03162 µM) | relative viability ([4]; first compound 0.1 µM) | relative viability ([4]; first compound 0.3162 µM) | relative viability ([4]; first compound 1 µM) | relative viability ([2]; first compound 0.01 µM)
NCI-H1915 | 0.538 | 0.537 | 0.504 | 0.528 | 0.414 | 1.03 | 0.93 | 0.904 | 0.881 | 0.383 | 0.384 | 0.228 | 0.354 | 0.39 | 0.262 | 0.271 | 0.251 | 0.241 | 0.286 | 
NCI-H661 | 0.437 | 0.388 | 0.323 | 0.318 | 0.298 | 0.399 | 0.303 | 0.24 | 0.272 | 0.274 | 0.242 | 0.285 | 0.247 | 0.251 |  | 0.513 | 0.38 | 0.331 | 0.337 | 0.507
NCI-H2023 | 0.395 | 0.363 | 0.308 | 0.322 | 0.348 | 0.233 | 0.233 | 0.228 | 0.177 | 0.434 | 0.451 | 0.362 | 0.323 | 0.298 | 0.245 | 0.232 | 0.206 | 0.217 | 0.376 | 0.209
LXF-289 | 0.633 | 0.631 | 0.554 |  | 0.58 | 0.821 |  | 0.759 | 0.418 | 0.533 | 0.537 | 0.461 | 0.476 | 0.435 | 0.382 | 0.396 | 0.39 | 0.349 | 0.421 | 0.785
HCC-44 | 1.02 | 0.969 |  | 0.926 | 0.966 | 0.561 | 0.655 | 0.642 | 0.643 | 0.22 | 0.228 | 0.213 | 0.157 | 0.245 | 0.993 | 0.983 | 0.897 | 0.922 | 1.09 | 0.852
SK-LU-1 | 0.389 | 0.447 | 0.376 | 0.373 | 0.288 | 0.65 | 0.514 | 0.505 | 0.34 | 0.584 | 0.515 | 0.521 | 0.381 | 0.25 | 0.662 | 0.796 | 0.588 | 0.579 | 0.421 | 0.647
HOP-62 | 0.455 | 0.475 | 0.383 |  | 0.303 | 0.826 | 0.691 | 0.669 | 0.52 | 0.716 | 0.702 | 0.621 | 0.585 | 0.617 | 0.215 | 0.222 | 0.198 |  | 0.215 | 0.677
NCI-H358 | 0.143 | 0.112 | 0.125 | 0.12 | 0.129 | 0.336 | 0.231 | 0.295 | 0.228 | 0.28 | 0.266 | 0.164 | 0.147 | 0.101 | 0.205 | 0.186 |  | 0.129 | 0.117 | 0.302
SK-MES-1 | 0.3 | 0.327 | 0.329 | 0.281 | 0.247 | 0.338 | 0.238 | 0.207 | 0.177 | 0.675 | 0.706 | 0.665 | 0.285 | 0.2 | 0.401 | 0.403 | 0.3 | 0.299 | 0.221 | 0.347
